Results as given in patent publication US8017828B2, “Utilization of rare sugars in plant or microorganism” (Shikoku Research Institute Incorporated, priority 2004, dated 2011).

Assays:
Type in all cases: in vivo
[1] = system: cherry tomato plant “mini carol”; assay: Growth of cherry tomato seedlings with D-allose in nutrient solution; set-up: key to Number of opening flowers: z: Bud formation could not be confirmed; details: for Fresh leaf weight / Fresh stem weight / Number of leaves / Number of opening flowers / Stem diameter / Stem length: 4 weeks
Method: On Jul. 13, 2004, seeds of a cherry tomato plant “mini carol” (Sakata Seed Co., Ltd.) were sown one by one in the respective holes using 30 holes among the 253 holes of a rockwool (280 mm (width)×580 mm (length)), which was placed in a plastic container with a capacity of 8 L. In this plastic container, 1 L of each nutrient solution in which a fertilizer (Otsuka No. 1 (1.5 g/L) and Otsuka No. 2 (1.0 g/L)) was dissolved was poured, then, the cultivation was carried out in a glass chamber without heating. With regard to a treated plot, 7 treated plots in which a treatment liquid obtained by adding D-allose at 0 to 5 mM to the fertilizer nutrient solution was poured in the plastic container from July 20 when the seeds germinated completely were prepared. Incidentally, the treatment liquid was added in the same amount to the respective treated plots according to need. A survey was carried out with regard to the growth at 4 weeks after the initiation of the treatment.

[2] = system: strawberry plant (variety: “smile ruby”); assay: Foliar spraying of sugar on potted strawberry, fruit harvest; details: 0.5% (w/v) sprayed three times weekly
Method: A strawberry plant (variety: “smile ruby”) was used in an experiment. The strawberry plants were planted in pots and from Feb. 13, 2004, while the cultivation was carried out in a glass house, water or a 0.5% (w/v) sugar solution was sprayed onto the whole plant on a three times weekly basis. As for the types of sugars, D-glucose and D-psicose were used and two pots were cultivated for each test plot. While the cultivation was continued, the number of fruits, the weight of fruits, the sugar content of fruits were measured with regard to the fruits that could be harvested by Mar. 25, 2004.

Fusarium oxysporum = assay: Table 12: plants with or without Fusarium oxysporum, seed and medium treated with D-psicose
[3] = system: eggplant plant (variety: “Senryo NiGo”); assay: Spraying of sugar solution during eggplant cultivation; details: 0.2% (w/v) sprayed weekly
Method: In the process of cultivation of eggplant, an effect of spraying D-psicose was examined.
An eggplant plant (variety: “Senryo NiGo”) was used in an experiment. Eggplant seedlings were transplanted for permanent planting to No. 7 unglazed pots filled with “Hana to Yasai no Tsuchi (garden soil for flowers and vegetables)” and a cultivation test was carried out in a vinyl house equipped with a heating device. As a fertilizer, 4 granules of IB compound fertilizer per pot were given around the roots, and irrigation was carried out by automatically feeding 500 ml of water twice a day. During the cultivation, on a weekly basis, water, a 0.2% (w/v) D-glucose solution or a 0.2 (w/v) D-psicose solution was sprayed onto the whole plant. As for the number of eggplant plants, 10 plants were used for each group, and the cultivation was carried out twice, i.e., in summer (from May 14 to Jul. 15, 2004) and in winter (from Nov. 4, 2004 to Feb. 24, 2005). A survey was carried out with regard to the growth conditions during the cultivation and yield of fruits.

[4] = system: tomato plant (variety: “Momotaro”); assay: Spraying of sugar solution during tomato cultivation; details: 0.2% (w/v) sprayed weekly
Method: In the process of cultivation of tomato, an effect of spraying D-psicose was examined.
A tomato plant (variety: “Momotaro”) was used in an experiment. Tomato seedlings were transplanted for permanent planting to No. 7 unglazed pots filled with “Hana to Yasai no Tsuchi (garden soil for flowers and vegetables)” and a cultivation test was carried out in a vinyl house equipped with a heating device. As a fertilizer, 4 granules of IB compound fertilizer per pot were given around the roots, and irrigation was carried out by automatically feeding 500 ml of water twice a day. During the cultivation, on a weekly basis, water, a 0.2% (w/v) D-glucose solution or a 0.2% (w/v) D-psicose solution was sprayed onto the whole plant. As for the number of tomato plants, 10 plants were used for each group, and the cultivation was carried out twice, i.e., in summer (from April 20 to Aug. 9, 2004) and in winter (from Nov. 4, 2004 to Mar. 14, 2005). A survey was carried out with regard to the growth conditions during the cultivation and yield of fruits.

[5] = Fusarium oxysporum added, D-psicose seed 0.01%, medium 0.01%
[6] = Fusarium oxysporum added, D-psicose seed 0.01%, medium non
[7] = Fusarium oxysporum added, D-psicose seed 0.10%, medium 0.10%
[8] = Fusarium oxysporum added, D-psicose seed 0.10%, medium non
[9] = Fusarium oxysporum without addition, D-psicose seed 0.10%, medium non

## O=C[C@H](O)[C@H](O)[C@H](O)[C@H](O)CO [D-allose]
[1]; 0.01 mM
  flowering: promoting flowering
  promotion of growth in the stem length in comparison with the untreated plot: 33%
  promotion of growth in the stem weight in comparison with the untreated plot: 67%
[1]; 5 mM
  growth: some growth inhibition
[1]; D-allose 0.01 mM
  Fresh leaf weight: 10.9 g
  Fresh stem weight: 16.4 g
  Number of leaves: 9.3
  Number of opening flowers: 0.6
  Stem diameter: 5.3 mm
  Stem length: 69.1 cm
[1]; D-allose 0.05 mM
  Fresh leaf weight: 6.9 g
  Fresh stem weight: 11.7 g
  Number of leaves: 8.9
  Number of opening flowers: 0.4
  Stem diameter: 4.3 mm
  Stem length: 60.9 cm
[1]; D-allose 0.1 mM
  Fresh leaf weight: 8.6 g
  Fresh stem weight: 11.1 g
  Number of leaves: 9.0
  Number of opening flowers: 0.0
  Stem diameter: 4.3 mm
  Stem length: 56.7 cm
[1]; D-allose 0.5 mM
  Fresh leaf weight: 8.3 g
  Fresh stem weight: 11.2 g
  Number of leaves: 8.3
  Number of opening flowers: 0.0
  Stem diameter: 4.5 mm
  Stem length: 57.0 cm
[1]; D-allose 1.0 mM
  Fresh leaf weight: 9.7 g
  Fresh stem weight: 13.7 g
  Number of leaves: 9.6
  Number of opening flowers: 0.0
  Stem diameter: 4.8 mm
  Stem length: 59.0 cm
[1]; D-allose 5.0 mM
  Fresh leaf weight: 4.8 g
  Fresh stem weight: 6.7 g
  Number of leaves: 7.0
  Number of opening flowers: z
  Stem diameter: 4.2 mm
  Stem length: 40.4 cm

## O=C(CO)[C@H](O)[C@H](O)[C@H](O)CO [D-psicose]
[2]; increased from 13.5 g
  average weight of fruits: 16.6 g
[2]; increased from 25
  number of fruits that could be harvested during the cultivation period: 38
[2]; increased from 337.8 g
  total weight of fruits that could be harvested: 630.3 g
Fusarium oxysporum; [5]
  Aerial part weight: 3.1 g
  Leaf browning ratio: 5%
  Plant length: 17.6 cm
  Survival rate: 50%
  Vascular bundle browning ratio: 45%
Fusarium oxysporum; [6]
  Aerial part weight: 1.9 g
  Leaf browning ratio: 100%
  Plant length: 14.5 cm
  Survival rate: 28%
  Vascular bundle browning ratio: 39%
Fusarium oxysporum; [7]
  Aerial part weight: 3.3 g
  Leaf browning ratio: 13%
  Plant length: 13.8 cm
  Survival rate: 25%
  Vascular bundle browning ratio: 38%
Fusarium oxysporum; [8]
  Aerial part weight: 2.2 g
  Leaf browning ratio: 100%
  Plant length: 13.9 cm
  Survival rate: 16%
  Vascular bundle browning ratio: 60%
Fusarium oxysporum; [9]
  Aerial part weight: 2.2 g
  Leaf browning ratio: 0%
  Plant length: 17.8 cm
  Survival rate: 100%
  Vascular bundle browning ratio: 0%
[3]; summer
  significant effect of spraying on cultivation: not observed
[3]; winter
  growth (aerial part weight and underground part weight): promotion of the growth
  yield of fruits: increase
[4]; summer
  significant effect of spraying on cultivation: not observed
[4]; winter
  number of fruits: increase
  yield of fruits: increase
